Assay results: PubChem BioAssay AID330 (DTP/NCI, 2004)
Where “and” joins values, the source holds several entries; their conditions need not be identical. Equal entries are not always repeated. Toxic doses and inconclusive results are not listed.

Tested on: P388 leukemia ip, CD2F1 mice, survival T/C
Test: NCI In Vivo Anticancer Drug Screen. Data for tumor model P388 Leukemia (intraperitoneal) in CD2F1 (CDF1) mice
Details: endpoint: median survival time, higher = longer survival
In short: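 Mice carrying the transplanted tumor received test compound or vehicle. Survival was recorded in each group, and the value is the treated-group measurement divided by that of the vehicle-treated control group.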

[1] = dose: 50.0 mg/kg/injection, schedule: Q01DX009 (ip), vehicle: Klucel (hydroxypropylcellulose) (HPC)
[2] = dose: 100.0 mg/kg/injection, schedule: Q01DX009 (ip), vehicle: Klucel (hydroxypropylcellulose) (HPC)
[3] = dose: 200.0 mg/kg/injection, schedule: Q01DX009 (ip), vehicle: Klucel (hydroxypropylcellulose) (HPC)
[4] = dose: 25.0 mg/kg/injection, schedule: Q01DX009 (ip), vehicle: saline
[5] = dose: 100.0 mg/kg/injection, schedule: Q04DX003 (ip), vehicle: saline with Tween-80
[6] = dose: 200.0 mg/kg/injection, schedule: Q04DX003 (ip), vehicle: saline with Tween-80
[7] = dose: 400.0 mg/kg/injection, schedule: Q04DX003 (ip), vehicle: saline with Tween-80
[8] = dose: 50.0 mg/kg/injection, schedule: Q01DX009 (ip), vehicle: saline with Tween-80
[9] = dose: 100.0 mg/kg/injection, schedule: Q01DX009 (ip), vehicle: saline with Tween-80
[10] = dose: 200.0 mg/kg/injection, schedule: Q01DX009 (ip), vehicle: saline with Tween-80
[11] = dose: 50.0 mg/kg/injection, schedule: Q01DX009 (ip), vehicle: suspension in saline
[12] = dose: 100.0 mg/kg/injection, schedule: Q01DX009 (ip), vehicle: suspension in saline
[13] = dose: 50.0 mg/kg/injection, schedule: Q01DX005 (ip), vehicle: Klucel (hydroxypropylcellulose) (HPC)
[14] = dose: 100.0 mg/kg/injection, schedule: Q01DX005 (ip), vehicle: Klucel (hydroxypropylcellulose) (HPC)
[15] = dose: 200.0 mg/kg/injection, schedule: Q01DX005 (ip), vehicle: Klucel (hydroxypropylcellulose) (HPC)
[16] = dose: 50.0 mg/kg/injection, schedule: Q01DX009 (ip), vehicle: saline
[17] = dose: 100.0 mg/kg/injection, schedule: Q01DX009 (ip), vehicle: saline
[18] = dose: 200.0 mg/kg/injection, schedule: Q01DX009 (ip), vehicle: saline
[19] = dose: 50.0 mg/kg/injection, schedule: Q01DX005 (ip), vehicle: saline with Tween-80
[20] = dose: 100.0 mg/kg/injection, schedule: Q01DX005 (ip), vehicle: saline with Tween-80
[21] = dose: 200.0 mg/kg/injection, schedule: Q01DX005 (ip), vehicle: saline with Tween-80

CC(C)O[Si](OC(C)C)(OC(C)C)OC(C)C
T/C [1]: 101 % of control | T/C [2]: 105 % of control | T/C [3]: 105 % of control

CCOC(=O)c1ccc(NC(=O)Nc2nnc(C)c(C)n2)cc1
T/C [1]: 92 % of control | T/C [2]: 88 % of control | T/C [3]: 88 % of control

CCOC(=O)Oc1ccc(CC([NH-])C(=O)O)cc1.CCOC(=O)Oc1ccc(CC([NH-])C(=O)O)cc1.[Cu+2] (stereo not drawn)
T/C (dose: 6.25 mg/kg/injection, schedule: Q01DX009 (ip), vehicle: saline): 100 % of control | T/C (dose: 12.5 mg/kg/injection, schedule: Q01DX009 (ip), vehicle: saline): 100 % of control | T/C [4]: 100 % of control

Cc1c(Cl)cccc1NC(=O)NNC(=O)c1ccncc1
T/C [1]: 90 % of control | T/C [2]: 88 % of control | T/C [3]: 88 % of control

N#CC1C(=O)NC(=S)NC1c1ccccc1 (stereo not drawn)
T/C [1]: 95 % of control | T/C [2]: 101 % of control | T/C [3]: 98 % of control

OCCN1CCOCC1
T/C [5]: 95 % of control | T/C [6]: 95 % of control | T/C [7]: 95 % of control

CC(C)Sc1ncnc2nc[nH]c12
T/C [8]: 100 % of control | T/C [9]: 104 % of control | T/C [5]: 95 % of control | T/C [10]: 118 % of control | T/C [6]: 86 % of control

Cc1ccc(Cl)cc1NS(=O)(=O)c1ccc(Br)cc1
T/C [5]: 100 % of control | T/C [6]: 100 % of control | T/C [7]: 104 % of control

CC(=O)Nc1ccc(S(=O)(=O)/C(=C/c2ccc(-c3ccc(Br)cc3)o2)c2ccc([N+](=O)[O-])o2)cc1
T/C [11]: 86 % of control | T/C [12]: 104 % of control

COc1ccc2c(c1)CCc1c-2n[nH]c1-c1[nH]nc2c1CCc1cc(OC)ccc1-2
T/C (dose: 60.0 mg/kg/injection, schedule: Q01DX005 (ip), vehicle: Klucel (hydroxypropylcellulose) (HPC)): 93 % of control | T/C (dose: 120.0 mg/kg/injection, schedule: Q01DX005 (ip), vehicle: Klucel (hydroxypropylcellulose) (HPC)): 93 % of control | T/C (dose: 240.0 mg/kg/injection, schedule: Q01DX005 (ip), vehicle: Klucel (hydroxypropylcellulose) (HPC)): 94 % of control

CCOC(=O)/C(C#N)=C/c1ccc(OC)c(OC)c1
T/C [13]: 99 % of control | T/C [14]: 108 % of control | T/C [15]: 100 % of control

CCN(CC)C(=S)Oc1cc2oc(=O)cc(C)c2cc1Cl
T/C [8]: 98 % of control | T/C [9]: 100 % of control | T/C [10]: 100 % of control

CCCCCCCCCCCC[S][Sn]([CH2]CCC)([S]CCCCCCCCCCCC)[S]CCCCCCCCCCCC
T/C [16]: 87 % of control | T/C [17]: 99 % of control | T/C [18]: 95 % of control

FC(F)(F)C1(C(F)(F)F)OP2(c3ccccc3)(OC(C(F)(F)F)(C(F)(F)F)c3ccccc32)c2ccccc21
T/C [13]: 98 % of control | T/C [14]: 91 % of control | T/C [15]: 100 % of control

O=Nc1ccc(Cl)cc1C(=O)c1ccccc1
T/C [16]: 90 % of control | T/C [17]: 104 % of control | T/C [18]: 97 % of control

CN1CCC(O)(c2ccccc2)C(O)C1 (stereo not drawn)
T/C [19]: 95 % of control | T/C [20]: 93 % of control | T/C [21]: 90 % of control

O=S(=O)(c1ccccn1)c1nc2ccccc2s1
T/C (dose: 60.0 mg/kg/injection, schedule: Q01DX005 (ip), vehicle: saline with Tween-80): 94 % of control | T/C (dose: 120.0 mg/kg/injection, schedule: Q01DX005 (ip), vehicle: saline with Tween-80): 90 % of control | T/C (dose: 240.0 mg/kg/injection, schedule: Q01DX005 (ip), vehicle: saline with Tween-80): 94 % of control

N#CC(=C1N=c2ccccc2=N1)c1[nH]c(O)c2ccccc12
T/C (dose: 6.25 mg/kg/injection, schedule: Q01DX009 (ip), vehicle: saline with Tween-80): 93 % of control | T/C (dose: 12.5 mg/kg/injection, schedule: Q01DX009 (ip), vehicle: saline with Tween-80): 91 % of control | T/C (dose: 25.0 mg/kg/injection, schedule: Q01DX009 (ip), vehicle: saline with Tween-80): 94 % of control

CC(=O)OC(c1ccccc1)N(Cc1ccccc1)N=O (stereo not drawn)
T/C (dose: 12.5 mg/kg/injection, schedule: Q01DX009 (ip), vehicle: distilled water + Tween-80): 111 % of control | T/C (dose: 25.0 mg/kg/injection, schedule: Q01DX009 (ip), vehicle: distilled water + Tween-80): 111 % of control | T/C (dose: 50.0 mg/kg/injection, schedule: Q01DX009 (ip), vehicle: distilled water + Tween-80): 118 % of control | T/C (dose: 100.0 mg/kg/injection, schedule: Q01DX009 (ip), vehicle: distilled water + Tween-80): 117 % of control | T/C (dose: 200.0 mg/kg/injection, schedule: Q01DX009 (ip), vehicle: distilled water + Tween-80): 119 % of control

COc1ccc(C2NC(c3ccc(OC)cc3)C3CCCC2C3=O)cc1 (stereo not drawn)
T/C (dose: 100.0 mg/kg/injection, schedule: Q04DX003 (ip), vehicle: saline): 102 % of control | T/C (dose: 200.0 mg/kg/injection, schedule: Q04DX003 (ip), vehicle: saline): 93 % of control | T/C (dose: 400.0 mg/kg/injection, schedule: Q04DX003 (ip), vehicle: saline): 98 % of control

CN(C/C=C/CN(C)C(=O)Nc1ccccc1)C(=O)Nc1ccccc1
T/C [16]: 96 % of control | T/C [17]: 100 % of control | T/C [18]: 89 % of control

COc1ccc2c(c1OC(C)=O)-c1cc(OC(C)=O)cc3c1C(C2)N(C(=O)CN(CCCl)CCCl)CC3 (stereo not drawn)
T/C (dose: 6.25 mg/kg/injection, schedule: Q04DX003 (ip), vehicle: other): 150 % of control | T/C (dose: 12.5 mg/kg/injection, schedule: Q04DX003 (ip), vehicle: other): 170 % of control | T/C (dose: 25.0 mg/kg/injection, schedule: Q04DX003 (ip), vehicle: DMSO): 170 % of control | T/C (dose: 25.0 mg/kg/injection, schedule: Q04DX003 (ip), vehicle: other): 185 % of control | T/C (dose: 50.0 mg/kg/injection, schedule: Q04DX003 (ip), vehicle: DMSO): 94 % of control | T/C (dose: 50.0 mg/kg/injection, schedule: Q04DX003 (ip), vehicle: other): 95 % of control

CC1(C)CSC(=S)N1
T/C (dose: 2.5 mg/kg/injection, schedule: Q01DX009 (ip), vehicle: saline sonified): 109 % of control | T/C (dose: 5.0 mg/kg/injection, schedule: Q01DX009 (ip), vehicle: saline sonified): 100 % of control | T/C (dose: 10.0 mg/kg/injection, schedule: Q01DX009 (ip), vehicle: saline sonified): 100 % of control

O=[N+]([O-])c1c(O)c(CNCCCO)cc(CNCCCO)c1O
T/C [4]: 113 % of control | T/C [16]: 116 % of control

Cc1nc2c([N+](=O)[O-])c(NCCO)c([N+](=O)[O-])cc2[nH]1
T/C [5]: 94 % of control | T/C [6]: 92 % of control | T/C [7]: 103 % of control

Cc1cccc(O)c1O
T/C [17]: 102 % of control | T/C [18]: 121 % of control and 122 % of control

C=C(C)COc1ccc(C)cc1
T/C (dose: 25.0 mg/kg/injection, schedule: Q01DX009 (ip), vehicle: other): 108 % of control | T/C (dose: 50.0 mg/kg/injection, schedule: Q01DX009 (ip), vehicle: other): 104 % of control | T/C (dose: 100.0 mg/kg/injection, schedule: Q01DX009 (ip), vehicle: other): 110 % of control

COc1ccc2c(c1)CN(C)CO2
T/C [19]: 103 % of control | T/C [20]: 102 % of control | T/C [21]: 107 % of control

CCCCN1C(=S)NC(OC)C1(C)C (stereo not drawn)
T/C [11]: 100 % of control | T/C [12]: 94 % of control | T/C (dose: 200.0 mg/kg/injection, schedule: Q01DX009 (ip), vehicle: suspension in saline): 100 % of control

CP1(=S)CCC2=C1c1ccc(O)cc1CC2 (stereo not drawn)
T/C [16]: 100 % of control | T/C [17]: 100 % of control | T/C [18]: 101 % of control

CCCCCCCCCCCCCCCC[N+](C)(CCO)Cc1ccccc1 (stereo not drawn)
T/C (dose: 6.25 mg/kg/injection, schedule: Q04DX002 (ip), vehicle: saline with Tween-80): 112 % of control | T/C (dose: 12.5 mg/kg/injection, schedule: Q04DX002 (ip), vehicle: saline with Tween-80): 116 % of control

Cc1ccc(C)c2c(C#Cc3ccccc3)c3ccccc3c(C#Cc3ccccc3)c12
T/C [13]: 96 % of control | T/C [14]: 90 % of control | T/C [15]: 90 % of control

COc1ccc(/C=C/C(=O)CCC(=O)O)cc1OC
T/C [1]: 100 % of control and 109 % of control | T/C [16]: 114 % of control | T/C [2]: 108 % of control and 109 % of control | T/C [3]: 106 % of control and 110 % of control
